#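 The concentration for 50% growth inhibition is given as GI50. TGI: concentration producing complete growth inhibition.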
# Key:
# Test in all cases: NCI-60 cell line screen, 384-well format
# NCI/ADR-RES ovarian = tested on: NCI/ADR-RES ovarian
# MDA-MB-231 breast = tested on: MDA-MB-231 breast
# NCI-H460 NSCLC = tested on: NCI-H460 NSCLC
# CAKI-1 renal = tested on: CAKI-1 renal
# CCRF-CEM leukemia = tested on: CCRF-CEM leukemia
# COLO 205 colon = tested on: COLO 205 colon
# KM12 colon = tested on: KM12 colon
# OVCAR-3 ovarian = tested on: OVCAR-3 ovarian
# HCC-2998 colon = tested on: HCC-2998 colon
# MCF7 breast = tested on: MCF7 breast
# MDA-MB-468 breast = tested on: MDA-MB-468 breast
# HCT-116 colon = tested on: HCT-116 colon
# OVCAR-5 ovarian = tested on: OVCAR-5 ovarian
# PC-3 prostate = tested on: PC-3 prostate
# SW-620 colon = tested on: SW-620 colon
# ACHN renal = tested on: ACHN renal
# SF-539 CNS = tested on: SF-539 CNS
# M14 melanoma = tested on: M14 melanoma
# UACC-62 melanoma = tested on: UACC-62 melanoma
# HCT-15 colon = tested on: HCT-15 colon
# 786-0 renal = tested on: 786-0 renal
# LOX IMVI melanoma = tested on: LOX IMVI melanoma
# SR leukemia = tested on: SR leukemia
# SF-268 CNS = tested on: SF-268 CNS
# MOLT-4 leukemia = tested on: MOLT-4 leukemia
# NCI-H322M lung = tested on: NCI-H322M lung
# SK-MEL-5 melanoma = tested on: SK-MEL-5 melanoma
# UO-31 renal = tested on: UO-31 renal
# SK-OV-3 ovarian = tested on: SK-OV-3 ovarian
# MALME-3M melanoma = tested on: MALME-3M melanoma
# UACC-257 melanoma = tested on: UACC-257 melanoma
# HT29 colon = tested on: HT29 colon
# NCI-H23 lung = tested on: NCI-H23 lung
# A549 NSCLC = tested on: A549 NSCLC
# SK-MEL-28 melanoma = tested on: SK-MEL-28 melanoma
# SF-295 CNS = tested on: SF-295 CNS
# SNB-75 CNS = tested on: SNB-75 CNS
# T-47D breast = tested on: T-47D breast
# OVCAR-8 ovarian = tested on: OVCAR-8 ovarian
# HS 578T breast = tested on: HS 578T breast
# K-562 leukemia = tested on: K-562 leukemia
# MDA-MB-435 melanoma = tested on: MDA-MB-435 melanoma
# SNB-19 CNS = tested on: SNB-19 CNS
# DU-145 prostate = tested on: DU-145 prostate
# HOP-62 NSCLC = tested on: HOP-62 NSCLC
# SN12C renal = tested on: SN12C renal
# TK-10 renal = tested on: TK-10 renal
compound,measurement,setting,value
CS(=O)(=O)c1ccc(-c2cnc(NCc3ccco3)n3cnnc23)cc1,GI50,NCI/ADR-RES ovarian,> 100 µM
same,TGI,NCI/ADR-RES ovarian,> 100 µM
same,GI50,MDA-MB-231 breast,> 100 µM
same,TGI,MDA-MB-231 breast,> 100 µM
same,GI50,NCI-H460 NSCLC,> 100 µM
same,TGI,NCI-H460 NSCLC,> 100 µM
same,GI50,CAKI-1 renal,> 100 µM
same,TGI,CAKI-1 renal,> 100 µM
same,GI50,CCRF-CEM leukemia,> 85.5 µM
same,TGI,CCRF-CEM leukemia,> 100 µM
same,GI50,COLO 205 colon,35.8 µM
same,TGI,COLO 205 colon,> 100 µM
same,GI50,KM12 colon,> 100 µM
same,TGI,KM12 colon,> 100 µM
same,GI50,OVCAR-3 ovarian,> 100 µM
same,TGI,OVCAR-3 ovarian,> 100 µM
same,GI50,HCC-2998 colon,> 100 µM
same,TGI,HCC-2998 colon,> 100 µM
same,GI50,MCF7 breast,> 100 µM
same,TGI,MCF7 breast,> 100 µM
same,GI50,MDA-MB-468 breast,17.3 µM
same,TGI,MDA-MB-468 breast,49.3 µM
same,GI50,HCT-116 colon,> 100 µM
same,TGI,HCT-116 colon,> 100 µM
same,GI50,OVCAR-5 ovarian,> 100 µM
same,TGI,OVCAR-5 ovarian,> 100 µM
same,GI50,PC-3 prostate,> 100 µM
same,TGI,PC-3 prostate,> 100 µM
same,GI50,SW-620 colon,> 100 µM
same,TGI,SW-620 colon,> 100 µM
same,GI50,ACHN renal,> 100 µM
same,TGI,ACHN renal,> 100 µM
same,GI50,SF-539 CNS,> 100 µM
same,TGI,SF-539 CNS,> 100 µM
same,GI50,M14 melanoma,29.6 µM
same,TGI,M14 melanoma,> 100 µM
same,GI50,UACC-62 melanoma,27.1 µM
same,TGI,UACC-62 melanoma,> 100 µM
same,GI50,HCT-15 colon,> 100 µM
same,TGI,HCT-15 colon,> 100 µM
same,GI50,786-0 renal,> 100 µM
same,TGI,786-0 renal,> 100 µM
same,GI50,LOX IMVI melanoma,52.8 µM
same,TGI,LOX IMVI melanoma,> 100 µM
same,GI50,SR leukemia,> 100 µM
same,TGI,SR leukemia,> 100 µM
same,GI50,SF-268 CNS,> 100 µM
same,TGI,SF-268 CNS,> 100 µM
same,GI50,MOLT-4 leukemia,49 µM
same,TGI,MOLT-4 leukemia,> 100 µM
same,GI50,NCI-H322M lung,> 100 µM
same,TGI,NCI-H322M lung,> 100 µM
same,GI50,SK-MEL-5 melanoma,37.2 µM
same,TGI,SK-MEL-5 melanoma,> 100 µM
same,GI50,UO-31 renal,> 100 µM
same,TGI,UO-31 renal,> 100 µM
same,GI50,SK-OV-3 ovarian,> 100 µM
same,TGI,SK-OV-3 ovarian,> 100 µM
same,GI50,MALME-3M melanoma,16.9 µM
same,TGI,MALME-3M melanoma,45.3 µM
same,GI50,UACC-257 melanoma,52.1 µM
same,TGI,UACC-257 melanoma,> 100 µM
same,GI50,HT29 colon,61.3 µM
same,TGI,HT29 colon,> 100 µM
same,GI50,NCI-H23 lung,> 100 µM
same,TGI,NCI-H23 lung,> 100 µM
same,GI50,A549 NSCLC,> 100 µM
same,TGI,A549 NSCLC,> 100 µM
same,GI50,SK-MEL-28 melanoma,30.3 µM
same,TGI,SK-MEL-28 melanoma,> 100 µM
same,GI50,SF-295 CNS,> 100 µM
same,TGI,SF-295 CNS,> 100 µM
same,GI50,SNB-75 CNS,> 100 µM
same,TGI,SNB-75 CNS,> 100 µM
same,GI50,T-47D breast,66.3 µM
same,TGI,T-47D breast,> 100 µM
same,GI50,OVCAR-8 ovarian,> 100 µM
same,TGI,OVCAR-8 ovarian,> 100 µM
same,GI50,HS 578T breast,> 100 µM
same,TGI,HS 578T breast,> 100 µM
same,GI50,K-562 leukemia,> 95.2 µM
same,TGI,K-562 leukemia,> 100 µM
same,GI50,MDA-MB-435 melanoma,> 87.3 µM
same,TGI,MDA-MB-435 melanoma,> 100 µM
same,GI50,SNB-19 CNS,> 100 µM
same,TGI,SNB-19 CNS,> 100 µM
same,GI50,DU-145 prostate,> 100 µM
same,TGI,DU-145 prostate,> 100 µM
same,GI50,HOP-62 NSCLC,> 100 µM
same,TGI,HOP-62 NSCLC,> 100 µM
same,GI50,SN12C renal,> 100 µM
same,TGI,SN12C renal,> 100 µM
same,GI50,TK-10 renal,> 100 µM
same,TGI,TK-10 renal,> 100 µM

# — PubChem BioAssay (NCI)
